One may read the Ki as the dissociation constant of the complex between target and ligand, obtained from inhibition or displacement. Broadly, the IC50 is the midpoint of a concentration-inhibition curve.

The target of one assay is BRD4 BD1 protein (Homo sapiens (Human), UniProt O60885). The assay is described as follows: Fluorescence polarization binding affinity (Ki) with BRD4 BD1 protein. The conditions noted are these: fluorescence polarization; Ki calculated from IC50.
The next assay addresses BRD4 BD2 protein (Homo sapiens (Human), UniProt O60885). In words: Fluorescence polarization binding affinity (Ki) with BRD4 BD2 protein. Details: BRD4 BD2 Ki: reference not given here. The conditions noted are these: fluorescence polarization; Ki calculated from IC50.
Assay [1] deals with multiple myeloma MM.1S cell line. The assay is described as follows: Cell viability (CCK-8), multiple myeloma MM.1S. In kind it is cell-based. To be noted: Homo sapiens, MM1.S, 96 h, MM.1S cells, 4 days, CCK-8, 50% inhibition of cell growth. In a few lines:
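Cells (about 3000-5000 per well) exposed to 3-fold serial dilutions of compound for 4 days at 37° C, 5% CO2. CCK-8 added 2-4 h, absorbance at 450 nm, viability normalised to untreated cells after medium-only blank subtraction; IC50 is concentration giving 50% growth inhibition.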

Several values for one entry are separate records, joined by “and”; a condition that tells them apart may be missing. Equal values may be shown once.

In the case of `Cc1nnn2c1-c1ccc(-c3cnn(C)c3)cc1C(Nc1ccccc1C(=O)O)CC2` (stereo not drawn) [LB173, 2-((1-methyl-9-(1-methyl-1H-pyrazol-4-yl)-6,7-dihydro-5H-benzo[c][1,2,3]triazolo[1,5-a]azepin-7-yl)amino)benzoic acid], the Ki on BRD4 BD1 protein is 0.179 µM; on BRD4 BD2 protein, 0.0321 µM. The 50% inhibitory concentration (IC50) in assay [1] came to 1.2 µM.
On the same counts, the results for `CNC(=O)c1cccc(NC2CCn3nnc(C)c3-c3ccc(-c4cnn(C)c4)cc32)c1` (stereo not drawn) [LB181] are 0.132 µM, 0.0145 µM and 0.168 µM.
As to `Cc1nnn2c1-c1ccc(-c3cnn(C)c3)cc1C(Nc1ccccc1CC(=O)O)CC2` (stereo not drawn) [LB185, 2-(2-((1-methyl-9-(1-methyl-1H-pyrazol-4-yl)-6,7-dihydro-5H-benzo[c][1,2,3]triazolo[1,5-a]azepin-7-yl)amino)phenyl)acetic acid], the results for the Ki on BRD4 BD1 protein and at BRD4 BD2 protein were 0.218 µM and 0.0145 µM, respectively. Besides, in assay [1], it took 1.62 µM to reach half-maximal inhibition (IC50).
As to `CNC(=O)c1ccccc1NC1CCn2nnc(C)c2-c2ccc(-c3cnn(C)c3)cc21` (stereo not drawn) [LB186], the Ki at BRD4 BD1 protein was 0.0822 µM; on BRD4 BD2 protein, 0.0137 µM. Also, it took 0.0366 µM to reach half-maximal inhibition in assay [1] (IC50).
In the case of `Cc1nnn2c1-c1ccc(-c3cnn(C)c3)cc1C(Nc1ccc(F)cc1F)CC2` (stereo not drawn) [LC01, N-(2,4-difluorophenyl)-1-methyl-9-(1-methyl-1H-pyrazol-4-yl)-6,7-dihydro-5H-benzo[c][1,2,3]triazolo[1,5-a]azepin-7-amine], the Ki on BRD4 BD1 protein was 0.056 µM; at BRD4 BD2 protein, 0.0284 µM and 0.00908 µM. The half-inhibitory concentration (IC50) in assay [1] amounted to 0.0488 µM.
As to `Cc1nnn2c1-c1ccc(-c3cnn(C)c3)cc1C(Nc1ccc(CC#N)cc1)CC2` (stereo not drawn) [LC03, 2-(4-((1-methyl-9-(1-methyl-1H-pyrazol-4-yl)-6,7-dihydro-5H-benzo[c][1,2,3]triazolo[1,5-a]azepin-7-yl)amino)phenyl)acetonitrile], the inhibitory constant (Ki) is 0.0329 µM on BRD4 BD1 protein; 0.00133 µM and 0.00403 µM on BRD4 BD2 protein. The same compound showed an IC50 in assay [1] of 0.059 µM.
Regarding `Cc1nnn2c1-c1ccc(-c3cnn(C)c3)cc1C(Nc1cccc(C#N)c1)CC2` (stereo not drawn) [LC07, 3-((1-methyl-9-(1-methyl-1H-pyrazol-4-yl)-6,7-dihydro-5H-benzo[c][1,2,3]triazolo[1,5-a]azepin-7-yl)amino)benzonitrile], the Ki was 0.134 µM at BRD4 BD1 protein; 0.0084 µM and 0.0188 µM on BRD4 BD2 protein. Moreover, in assay [1], the IC50 came out at 0.165 µM.
As to `Cc1nnn2c1-c1ccc(-c3cnn(C)c3)cc1C(Nc1ccccc1CC#N)CC2` (stereo not drawn) [LC09, 2-(2-((1-methyl-9-(1-methyl-1H-pyrazol-4-yl)-6,7-dihydro-5H-benzo[c][1,2,3]triazolo[1,5-a]azepin-7-yl)amino)phenyl)acetonitrile], the Ki at BRD4 BD1 protein is 0.0155 µM. Also, the “BRD4 BD2 Ki” value on BRD4 BD2 protein is “<Kd”. This compound registered an IC50 in assay [1] of 0.0393 µM.
On to `Cc1nnn2c1-c1ccc(-c3cnn(C)c3)cc1C(Nc1ccc(C#N)cc1)CC2` (stereo not drawn) [LC18, 4-((1-methyl-9-(1-methyl-1H-pyrazol-4-yl)-6,7-dihydro-5H-benzo[c][1,2,3]triazolo[1,5-a]azepin-7-yl)amino)benzonitrile], for which the inhibitory constant (Ki) on BRD4 BD1 protein was 0.0346 µM; on BRD4 BD2 protein it was 0.0152 µM. In assay [1], this compound yielded an IC50 of 0.0047 µM.
For `Cc1nnn2c1-c1ccc(-c3cnn(C)c3)cc1C(Nc1cccc(CC#N)c1)CC2` (stereo not drawn) [LC20, 2-(3-((1-methyl-9-(1-methyl-1H-pyrazol-4-yl)-6,7-dihydro-5H-benzo[c][1,2,3]triazolo[1,5-a]azepin-7-yl)amino)phenyl)acetonitrile], the values for the Ki on BRD4 BD1 protein and on BRD4 BD2 protein were 0.0596 µM and 0.015 µM, respectively. Also, the IC50 in assay [1] was 0.0253 µM.
`Cc1nnn2c1-c1ccc(-c3cnn(C)c3)cc1C(Nc1ccccc1CN(C)C)CC2` (stereo not drawn) [LC29, N-(2-((dimethylamino)methyl)phenyl)-1-methyl-9-(1-methyl-1H-pyrazol-4-yl)-6,7-dihydro-5H-benzo[c][1,2,3]triazolo[1,5-a]azepin-7-amine]: the values for the Ki at BRD4 BD1 protein and at BRD4 BD2 protein were 0.0194 µM and 0.0076 µM, respectively. The compound also showed a concentration for half-maximal inhibition (IC50) in assay [1] of 0.0122 µM.
With `Cc1nnn2c1-c1ccc(-c3cnn(C)c3)cc1C(Nc1cccc(CN(C)C)c1)CC2` (stereo not drawn) [LC31, N-(3-((dimethylamino)methyl)phenyl)-1-methyl-9-(1-methyl-1H-pyrazol-4-yl)-6,7-dihydro-5H-benzo[c][1,2,3]triazolo[1,5-a]azepin-7-amine], the values for the Ki at BRD4 BD1 protein and at BRD4 BD2 protein were 0.0926 µM and 0.0209 µM, respectively. Also, the IC50 in assay [1] came to 0.0279 µM.
On the same counts, the results for `Cc1nnn2c1-c1ccc(C3=CCNCC3)cc1C(Nc1cccc(OCCO)c1)CC2` (stereo not drawn) [LC56, 2-(3-((1-methyl-9-(1,2,3,6-tetrahydropyridin-4-yl)-6,7-dihydro-5H-benzo[c][1,2,3]triazolo[1,5-a]azepin-7-yl)amino)phenoxy)ethan-1-ol 2,2,2-trifluoroacetate] are 1.52 µM, 0.0703 µM and 2.89 µM.
On the same counts, the results for `Cc1nnn2c1-c1ccc(C3=CCNCC3)cc1C(Nc1cccc(Cl)c1)CC2` (stereo not drawn) [LC79, N-(3-chlorophenyl)-1-methyl-9-(1,2,3,6-tetrahydropyridin-4-yl)-6,7-dihydro-5H-benzo[c][1,2,3]triazolo[1,5-a]azepin-7-amine 2,2,2-trifluoroacetate] are 0.639 µM, 0.0343 µM and 0.936 µM.
On the same counts, the results for `Cc1nnn2c1-c1ccc(C3=CCNCC3)cc1C(Nc1cccc(O)c1)CC2` (stereo not drawn) [LC97, 3-((1-methyl-9-(1,2,3,6-tetrahydropyridin-4-yl)-6,7-dihydro-5H-benzo[c][1,2,3]triazolo[1,5-a]azepin-7-yl)amino)phenol 2,2,2-trifluoroacetate] are 0.795 µM, 0.0406 µM and 0.591 µM.
Consider `Cc1nnn2c1-c1ccc(C3=CCN(C)CC3)cc1C(Nc1cccc(Cl)c1)CC2` (stereo not drawn) [LD07, N-(3-chlorophenyl)-1-methyl-9-(1-methyl-1,2,3,6-tetrahydropyridin-4-yl)-6,7-dihydro-5H-benzo[c][1,2,3]triazolo[1,5-a]azepin-7-amine 2,2,2-trifluoroacetate], for which the Ki on BRD4 BD1 protein is 0.77 µM; on BRD4 BD2 protein, 0.0331 µM. In assay [1], this compound registered an IC50 of 0.146 µM.
As for `CC(=O)N1CC=C(c2ccc3c(c2)C(Nc2ccc(Cl)cc2)CCn2nnc(C)c2-3)CC1` (stereo not drawn) [LD19, 1-(4-(7-((4-chlorophenyl)amino)-1-methyl-6,7-dihydro-5H-benzo[c][1,2,3]triazolo[1,5-a]azepin-9-yl)-3,6-dihydropyridin-1(2H)-yl)ethan-1-one], the values for the Ki on BRD4 BD1 protein and at BRD4 BD2 protein were 0.0387 µM and 0.00967 µM, respectively. In assay [1], this compound yielded an IC50 of less than 0.001 µM.
`CC(=O)N1CC=C(c2ccc3c(c2)C(Nc2ccc(F)c(Cl)c2)CCn2nnc(C)c2-3)CC1` (stereo not drawn) [LD77, 1-(4-(7-((3-chloro-4-fluorophenyl)amino)-1-methyl-6,7-dihydro-5H-benzo[c][1,2,3]triazolo[1,5-a]azepin-9-yl)-3,6-dihydropyridin-1(2H)-yl)ethan-1-one]: the Ki is 0.0817 µM at BRD4 BD1 protein; 0.00397 µM and 0.00316 µM on BRD4 BD2 protein. This compound also came in with an IC50 in assay [1] of 0.00186 µM.
On to `Cc1nnn2c1-c1ccc(-c3ccncc3)cc1C(Nc1ccc(Cl)cc1)CC2` (stereo not drawn) [RA188, N-(4-chlorophenyl)-1-methyl-9-(pyridin-4-yl)-6,7-dihydro-5H-benzo[c][1,2,3]triazolo[1,5-a]azepin-7-amine], for which the values for the inhibition constant Ki at BRD4 BD1 protein and at BRD4 BD2 protein were 0.0737 µM and 0.0171 µM, respectively. In assay [1], this compound gave an IC50 of 0.00854 µM.
On to `Cc1nnn2c1-c1ccc(-c3cccnc3)cc1C(Nc1ccc(Cl)cc1)CC2` (stereo not drawn) [RA193, N-(4-chlorophenyl)-1-methyl-9-(pyridin-3-yl)-6,7-dihydro-5H-benzo[c][1,2,3]triazolo[1,5-a]azepin-7-amine], for which the Ki at BRD4 BD1 protein is 0.052 µM; on BRD4 BD2 protein it was 0.0111 µM. The compound further displayed an IC50 in assay [1] of 0.0505 µM.
In the case of `Cc1nnn2c1-c1ccc(-c3ccc(NC(=O)OC(C)(C)C)cc3)cc1C(Nc1ccc(Cl)cc1)CC2` (stereo not drawn) [RA194, tert-butyl (4-(7-((4-chlorophenyl)amino)-1-methyl-6,7-dihydro-5H-benzo[c][1,2,3]triazolo[1,5-a]azepin-9-yl)phenyl)carbamate], the Ki on BRD4 BD1 protein is 0.0291 µM; at BRD4 BD2 protein, 0.0241 µM. This compound also registered an IC50 in assay [1] of 0.329 µM.
Regarding `Cc1nnn2c1-c1ccc(-c3ccc(N)nc3)cc1C(Nc1ccc(Cl)cc1)CC2` (stereo not drawn) [RB03, 9-(6-aminopyridin-3-yl)-N-(4-chlorophenyl)-1-methyl-6,7-dihydro-5H-benzo[c][1,2,3]triazolo[1,5-a]azepin-7-amine], the Ki on BRD4 BD1 protein is 0.0369 µM; on BRD4 BD2 protein, 0.0166 µM. Further, the midpoint of inhibition in assay [1], the IC50, lay at 0.0169 µM.
Taken in the same sequence, the figures for `Cc1nnn2c1-c1ccc(-c3cncnc3)cc1C(Nc1ccc(Cl)cc1)CC2` (stereo not drawn) [RB06, N-(4-chlorophenyl)-1-methyl-9-(pyrimidin-5-yl)-6,7-dihydro-5H-benzo[c][1,2,3]triazolo[1,5-a]azepin-7-amine] were 0.129 µM, 0.0154 µM and 0.0532 µM.
Taken in the same sequence, the figures for `Cc1nnn2c1-c1ccc(-c3cn[nH]c3)cc1C(Nc1ccc(Cl)cc1)CC2` (stereo not drawn) [RB07, N-(4-chlorophenyl)-1-methyl-9-(1H-pyrazol-4-yl)-6,7-dihydro-5H-benzo[c][1,2,3]triazolo[1,5-a]azepin-7-amine] were 0.0512 µM, 0.0198 µM and 0.0136 µM.
As for `Cc1nnn2c1-c1ccc(-c3ccc4c(c3)OCO4)cc1C(Nc1ccc(Cl)cc1)CC2` (stereo not drawn) [RB11, 9-(benzo[d][1,3]dioxo1-5-yl)-N-(4-chlorophenyl)-1-methyl-6,7-dihydro-5H-benzo[c][1,2,3]triazolo[1,5-a]azepin-7-amine], the Ki at BRD4 BD1 protein is 0.0899 µM; on BRD4 BD2 protein it was 0.0129 µM. The compound further returned a half-maximal inhibitory concentration (IC50) in assay [1] of 0.323 µM.

(Values after patent publication US12286435B2, “Compound having benzo seven-membered ring structure, preparation method therefor, and use thereof” (BIONNA (BEIJING) MEDICAL TECHNOLOGY CO., LTD., priority 2019, dated 2025).)
